Each molecule was assayed against T1, Sodium/glucose cotransporter 2 (Homo sapiens) (UniProt P31639) (assay: (§1) Inhibition of human SGLT2 expressed in CHO-K1 cells assessed as reduction in [14C]-alpha-methylglucopyranoside uptake after 2 hrs by liquid scintillation counting).
T1 sequence (whole entry): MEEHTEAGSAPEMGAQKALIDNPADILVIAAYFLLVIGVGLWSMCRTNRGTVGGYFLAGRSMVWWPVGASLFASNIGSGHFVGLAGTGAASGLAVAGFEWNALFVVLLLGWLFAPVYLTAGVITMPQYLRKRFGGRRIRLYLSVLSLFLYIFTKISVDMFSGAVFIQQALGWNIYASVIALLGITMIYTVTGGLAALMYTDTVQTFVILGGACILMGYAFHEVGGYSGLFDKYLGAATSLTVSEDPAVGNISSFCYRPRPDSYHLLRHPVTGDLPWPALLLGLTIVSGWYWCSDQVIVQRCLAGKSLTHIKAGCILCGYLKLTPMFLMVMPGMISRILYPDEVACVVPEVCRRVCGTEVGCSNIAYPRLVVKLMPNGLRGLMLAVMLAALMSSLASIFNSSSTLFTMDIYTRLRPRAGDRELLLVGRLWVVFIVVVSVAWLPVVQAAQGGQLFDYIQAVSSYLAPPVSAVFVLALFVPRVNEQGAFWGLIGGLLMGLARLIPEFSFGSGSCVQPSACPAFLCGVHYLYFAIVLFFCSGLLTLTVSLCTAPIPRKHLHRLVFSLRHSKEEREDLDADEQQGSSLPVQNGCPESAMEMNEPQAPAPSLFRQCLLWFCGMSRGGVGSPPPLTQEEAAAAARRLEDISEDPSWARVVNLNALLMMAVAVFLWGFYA
Assay type: cell-based

| inhibition | SMILES |
| --- | --- |
| Dose-dependent effect | COc1ccc(NC(=S)NNC(=O)c2cc(-c3ccccc3)sc2N)cc1 |
| Dose-dependent effect | COc1cc(C(Nc2cccc(C)n2)c2ccc3ccc(C)nc3c2O)cc(OC)c1OC (stereo not drawn) |
| Dose-dependent effect | CC(C)(C)C(O)Cn1c(=N)n(Cc2ccccc2)c2ccccc21 (stereo not drawn) |

The molecules below were run against T2, Sodium/glucose cotransporter 2 (Homo sapiens, UniProt P31639) (assay: as §1).
T2 sequence (P31639 whole entry): T1 sequence (whole entry)
Assay type: cell-based

| EC50 [µM] | SMILES |
| --- | --- |
| > 50 | N=c1n(CC(=O)O)c2ccccc2n1Cc1ccc(Cl)cc1 |
| 16.2 | COc1ccc(C(O)Cn2c(=N)n(Cc3ccccc3)c3ccccc32)cc1 (stereo not drawn) |
| 11 | N=c1n(Cc2ccc(Cl)cc2)c2ccccc2n1CC(O)c1ccco1 (stereo not drawn) |
| 40.4 | C=CCn1c(=N)n(CC(O)C(C)(C)C)c2ccccc21 (stereo not drawn) |
| 0.067 | Cn1cc(CCc2ccc3c(c2)CCO3)c2c(O[C@@H]3O[C@H](CO)[C@@H](O)[C@H](O)[C@H]3O)cccc21 |
| 8.98 | COc1ccc(NC(=S)NNC(=O)c2cc(-c3ccccc3)sc2N)cc1 |
| 19.1 | N=c1n(Cc2ccccc2)c2ccccc2n1CC(O)c1cccs1 (stereo not drawn) |
| 0.012 | CCc1ccc(Cc2cc([C@@H]3O[C@H](CO)[C@@H](O)[C@H](O)[C@H]3O)ccc2C)cc1 |
| 4.6 | N=c1n(Cc2ccccc2)c2ccccc2n1CC(O)COc1ccccc1 (stereo not drawn) |
| 0.024 | OC[C@H]1O[C@@H](Oc2cccc3[nH]cc(CCc4ccc5c(c4)CCO5)c23)[C@H](O)[C@@H](O)[C@@H]1O |
| 0.0011 | CCOc1ccc(Cc2cc([C@@H]3O[C@H](CO)[C@@H](O)[C@H](O)[C@H]3O)ccc2C)cc1 |
| 31.1 | N=c1n(CCO)c2ccccc2n1Cc1ccc(Cl)cc1 |
| 5.92 | COc1cc(C(Nc2cccc(C)n2)c2ccc3ccc(C)nc3c2O)cc(OC)c1OC (stereo not drawn) |
| > 50 | CC(C)(C)C(O)Cn1c(=N)n(CCN2CCCCC2)c2ccccc21 (stereo not drawn) |
| 34.7 | N=c1n(Cc2ccccc2)c2ccccc2n1CC(O)c1ccco1 (stereo not drawn) |
| 3.85 | CC(C)(C)C(O)Cn1c(=N)n(Cc2ccccc2)c2ccccc21 (stereo not drawn) |

| SMILES | EC50 [µM] |
| --- | --- |
| OC[C@H]1O[C@@H](n2cc(Cc3ccc(C4CC4)cc3)c3c(F)cc(F)cc32)[C@H](O)[C@@H](O)[C@@H]1O | 0.0028 |
| OC[C@H]1O[C@@H](n2cc(Cc3ccc(C4CC4)cc3)c3c(F)cccc32)[C@H](O)[C@@H](O)[C@@H]1O | 0.0019 |
| N=c1n(CCO)c2ccccc2n1Cc1ccccc1 | > 50 |
| OC[C@H]1O[C@@H](n2cc(Cc3ccc(C4CC4)cc3)c3c(Cl)cccc32)[C@H](O)[C@@H](O)[C@@H]1O | 0.0023 |

Reference: ChEMBL document CHEMBL1781960, “Discovery of non-glycoside sodium-dependent glucose co-transporter 2 (SGLT2) inhibitors by ligand-based virtual screening” (J Med Chem, 2010)
